Test results reported in patent US8703199B2, “Pharmaceutical compositions of adsorbates of amorphous drug” (Bend Research, Inc., priority 2001, dated 2014).
Values belong to the molecule of their own block, whether it stands above or below them.

What was measured:
Type in all cases: physicochemical
[1] = in vitro dissolution test, microcentrifuge method, Drug 2 in 0.5 wt % MFD solution; conditions: for AUC / Drug 2 Concentration: 0.5 wt % MFD solution pH 6.5
Description: The adsorbate of Example 6 and the crystalline drug of Control 2A were evaluated in an in vitro dissolution test using a microcentrifuge method as in Example 2. In this test, 9 mg of the adsorbate of Example 6, or 1.8 mg of Control 2A, was added to a microcentrifuge tube. The tubes were placed in a 37° C. temperature-controlled chamber, and 1.8 mL of 0.5 wt % MFD solution at pH 6.5 and 290 mOsm/kg was added. The samples were quickly mixed using a vortex mixer for about 60 seconds. The samples were centrifuged at 13,000 G at 37° C. for 1 minute. The resulting supernatant solution was then sampled and diluted 1:5 (by volume) with methanol. Diluted samples were analyzed by HPLC at a UV absorbance of 256 nm using a Waters Symmetry C8 column and a mobile phase consisting of 15% (0.2% H3PO4)/85% methanol. The contents of the tubes were mixed on the vortex mixer and allowed to stand undisturbed at 37° C. until the next sample was taken. Samples were collected at 4, 10, 20, 40, 90, and 1200 minutes. […]

[2] = nuclear magnetic resonance (NMR) test of dissolved Drug 2 in deuterated MFD solution; conditions: after equilibration for 3 days
Description: The adsorbate of Example 9 and the crystalline drug of Control 2A were evaluated using a nuclear magnetic resonance (NMR) test. In this test, 0.690 mg of the adsorbate of Example 9, or 0.174 mg of Control 2, was added to a microcentrifuge tube. The tubes were placed in a 37° C. temperature-controlled chamber, and 1.7 mL for Example 9, or 1.8 mL for Control 2A, of 2 wt % deuterated MFD solution (d-MFD) at pH 6.5, 37° C., and 290 mOsm/kg was added. The samples were quickly mixed using a vortex mixer for 60 seconds. […] The supernatant was then carefully transferred to an 8 mm glass NMR tube for Example 9. […]
Fluorine spectra of the sample were recorded at 282.327 MHz on a Varian Gemini 2000, 300 MHz NMR equipped with a Nalorac 8 mm indirect detection probe. […] Drug resonances were integrated relative to the internal standard peak and the drug concentration determined. The given experiment time was calculated from the time the solvent was added to the solid sample until half of the time the spectrum had been acquired by the NMR. For example, when the spectra has been recorded for 2 hours after the sample was equilibrated for 30 minutes the time listed for the NMR result is 90 minutes. […]
The adsorbates of Example 13 and Example 14 were evaluated using the nuclear magnetic resonance (NMR) test described in Example 11. […]

[3] = in vitro dissolution test, microcentrifuge method, Drug 2 in PBS (alone or with Pluronic F-127); design: AUC / AUC90: concentration or dose not given beside the values; conditions: for AUC / Drug 2 Concentration: PBS pH 6.5
Description: (§1) The tubes were placed in a 37° C. temperature-controlled chamber, and 1.8 mL phosphate buffered saline (PBS) at pH 6.5 and 290 mOsm/kg was added. The solutions were quickly mixed using a vortex mixer for about 60 seconds, and then centrifuged at 13,000 G at 37° C. for […]. The resulting supernatant solution was then sampled and diluted 1:5 (by volume) with methanol. Diluted samples were analyzed by high-performance liquid chromatography (HPLC) at a UV absorbance of 245 nm using a Phenomenex Kromasil C4 column and a mobile phase of 45% (0.2% H3PO4)/55% acetonitrile. After sampling, the contents of the tubes were mixed on the vortex mixer and allowed to stand undisturbed at 37° C. until the next sample was taken. Samples were collected at 4, 10, 20, 40, 90, and 1200 minutes.
This example illustrates that combining concentration-enhancing polymer with a drug/substrate adsorbate results in improved concentration enhancement. The adsorbate of Example 9, consisting of 25 wt % Drug 2 and 75 wt % CAB-O-SIL M-5P, was evaluated in an in vitro dissolution test using the procedure describe in Example 2, except that 7.2 mg of the adsorbate, or 1.8 mg of Control 2B, was added to a microcentrifuge tube containing 1.8 mL PBS alone, or 1.8 mL PBS with 3.6 mg of the concentration-enhancing polymer polyoxyethylene-polyoxypropylene block copolymer (Pluronic® F-127, available from BASF Corp.) HPLC analysis of Drug 2 was performed as described in Example 7. […]

[4] = in vitro dissolution test, microcentrifuge method, Drug 3 in 0.5 wt % MFD solution
Description: The adsorbate of Example 17 was evaluated in an in vitro dissolution test as in Example 2 using 1.44 mg of the adsorbate of […], or 0.36 mg of crystalline Drug 3 (Control 3) in a microcentrifuge tube with 1.8 ml of 0.5 wt % MFD solution. Samples were analyzed by HPLC at a UV absorbance of 254 nm using a Phenomex ODS 20 column and a mobile phase consisting of 60% 0.02 M KH2PO4(pH 3.0)/40% acetonitrile.
(§2) The drug/substrate adsorbate of Example 35 was evaluated in an in vitro dissolution test using the procedure described in Example 18, except that 1.44 mg of the adsorbate, or 0.36 mg of Control 3B, was added to a microcentrifuge tube containing 1.8 mL 0.5 wt % MFD solution at pH 6.5.
as §2, with “drug/concentration-enhancing polymer/substrate” for “drug/substrate”, “37” for “35”, “1.96” for “1.44”, “0.39” for “0.36”, “3A,” for “3B,”

[5] = in vitro dissolution test, microcentrifuge method, Drug 4 in PBS; design: AUC / AUC90: concentration or dose not given beside the values
Description: as §1, with “minutes. […]” for “minutes.”
The adsorbate of Example 23 was evaluated in the in vitro dissolution test described in Example 22. In this test, 45 mg of the adsorbate of Example 23 was added to the microcentrifuge tubes used in the test. Samples for this test were collected at 4, 10, 20, 40, 90, and 1200 minutes.

[6] = accelerated storage test of physical stability (PXRD)
Description: The stability of Example 1 adsorbate was evaluated in an accelerated storage test. The adsorbate was stored under elevated temperature and humidity conditions to increase the rate of physical changes occurring in the material in order to simulate a longer storage interval in a typical storage environment. Samples of the adsorbate and Control 1B were stored at 40° C./75% relative humidity (RH). Samples were analyzed using a powder X-ray diffraction (PXRD) technique using a Bruker AXS D8 Advance diffractometer as follows. The X-ray tube (KCu, 1.54184 Å) was operated at a voltage of 45 kV and a current of 40 mA with the beam focused through a Göbel mirror and a series of slits into a line focus. Diffractograms were typically collected over the 2□ range of 4° to 40° with a step size of 0.02°/step. Data were collected for a minimum time of 2.4 sec/step. Scans were obtained by holding the tube at a constant angle (to keep the illuminated area of the sample constant) and scanning a scintillation-counter detector fitted with a thin film collimator through 2□. […]
Samples of the adsorbate of Example 9 were assessed for physical stability by storing them for 12 weeks at 50° C./75% RH. […]
The physical stability of the adsorbate of Example 23 was evaluated by storing samples of the adsorbate at 40° C. and 75% relative humidity and periodically withdrawing samples and analyzing them by PXRD.

[7] = 1200 min, 0.5 wt % MFD solution

SMILES: O=C1Cc2cc(CCN3CCN(c4nsc5ccccc45)CC3)c(Cl)cc2N1 [Control 3A]
AUC ([4]; 0 min, 0.5 wt % MFD solution): 0 µg·min/mL
Drug 3 Concentration ([4]; 0 min, 0.5 wt % MFD solution, 0.36 mg crystalline drug added): 0 μgA/mL
Drug 3 Concentration ([4]; 1200 min, 0.5 wt % MFD solution, 0.36 mg crystalline drug added): 5 μgA/mL
Drug 3 Concentration ([4]; 1200 min, 0.5 wt % MFD solution, 0.39 mg crystalline drug added, pH 6.5): 9 μgA/mL
C1200 ([4]; Drug 3, 0.5 wt % MFD solution): 9 μgA/mL
Cmax,90 ([4]; Drug 3, 0.5 wt % MFD solution): 3000 ng/mL

SMILES: O=C1Cc2cc(CCN3CCN(c4nsc5ccccc45)CC3)c(Cl)cc2N1 [Control 3B]
AUC ([4]; 0 min, 0.5 wt % MFD solution): 0 µg·min/mL
Drug 3 Concentration ([4]; 0 min, 0.5 wt % MFD solution): 0 μgA/mL
AUC ([4]; 4 min, 0.5 wt % MFD solution): 0 µg·min/mL
Drug 3 Concentration ([4]; 4 min, 0.5 wt % MFD solution): 2 μgA/mL
AUC ([4]; 10 min, 0.5 wt % MFD solution): 0 µg·min/mL
Drug 3 Concentration ([4]; 10 min, 0.5 wt % MFD solution): 2 μgA/mL
AUC ([4]; 20 min, 0.5 wt % MFD solution): 0 µg·min/mL
Drug 3 Concentration ([4]; 20 min, 0.5 wt % MFD solution): 2 μgA/mL
AUC ([4]; 40 min, 0.5 wt % MFD solution): 100 µg·min/mL
Drug 3 Concentration ([4]; 40 min, 0.5 wt % MFD solution): 2 μgA/mL
AUC ([4]; 90 min, 0.5 wt % MFD solution): 200 µg·min/mL
Drug 3 Concentration ([4]; 90 min, 0.5 wt % MFD solution): 2 μgA/mL
AUC [4, 7]: 2,400 min * μg/mL
Drug 3 Concentration [4, 7]: 2 μgA/mL
AUC90 ([4]; Drug 3, 0.5% MFD): 200 µg·min/mL
C1200 ([4]; Drug 3, 0.5 wt % MFD solution): 2 μgA/mL

Next, values leading:

AUC ([1]; 0 min): 0 µg·min/mL
Drug 2 Concentration ([1]; 0 min): 0 µg/mL
AUC ([1]; 4 min): 6 µg·min/mL
Drug 2 Concentration ([1]; 4 min): 3 µg/mL
AUC ([1]; 10 min): 21 µg·min/mL
Drug 2 Concentration ([1]; 10 min): 2 µg/mL
AUC ([1]; 20 min): 71 µg·min/mL
Drug 2 Concentration ([1]; 20 min): 8 µg/mL
AUC ([1]; 40 min): 190 µg·min/mL
Drug 2 Concentration ([1]; 40 min): 4 µg/mL
AUC ([1]; 90 min): 570 µg·min/mL
Drug 2 Concentration ([1]; 90 min): 11 µg/mL
AUC ([1]; 1200 min): 14,700 min * μg/mL
Drug 2 Concentration ([1]; 1200 min): 15 µg/mL
AUC90 ([1]; Drug 2, 0.5 wt % MFD solution): 570 µg·min/mL
Cmax,90 ([1]; Drug 2, 0.5 wt % MFD solution): 11000 ng/mL
dissolved Drug 2 concentration [2]: 13 μgA/mL
SMILES: CCOC(=O)N1c2ccc(C(F)(F)F)cc2[C@@H](N(Cc2cc(C(F)(F)F)cc(C(F)(F)F)c2)C(=O)OC)C[C@H]1CC [Control 2A, [2R,4S] 4-[(3,5-bis-trifluoromethyl-benzyl)-methoxycarbonyl-amino]-2-ethyl-6-trifluoromethyl-3,4-dihydro-2H-quinoline-1-carboxylic acid ethyl ester]

AUC ([3]; 0 min): 0 µg·min/mL
Drug 2 Concentration ([3]; 0 min): <1 μgA/mL
AUC ([3]; 4 min): <2 µg·min/mL
Drug 2 Concentration ([3]; 4 min): <1 μgA/mL
AUC ([3]; 10 min): <8 µg·min/mL
Drug 2 Concentration ([3]; 10 min): <1 μgA/mL
AUC ([3]; 20 min): <18 µg·min/mL
Drug 2 Concentration ([3]; 20 min): <1 μgA/mL
AUC ([3]; 40 min): <38 µg·min/mL
Drug 2 Concentration ([3]; 40 min): <1 μgA/mL
AUC ([3]; 90 min): <88 µg·min/mL
Drug 2 Concentration ([3]; 90 min): <1 μgA/mL
AUC ([3]; 1200 min): <1,200 min * μg/mL
Drug 2 Concentration ([3]; 1200 min): <1 μgA/mL
AUC90 ([3]; Drug 2, PBS): <88 µg·min/mL
C1200 ([3]; Drug 2, PBS): <1 μgA/mL
SMILES: CCOC(=O)N1c2ccc(C(F)(F)F)cc2[C@@H](N(Cc2cc(C(F)(F)F)cc(C(F)(F)F)c2)C(=O)OC)C[C@H]1CC [Control 2B, [2R,4S] 4-[(3,5-bis-trifluoromethyl-benzyl)-methoxycarbonyl-amino]-2-ethyl-6-trifluoromethyl-3,4-dihydro-2H-quinoline-1-carboxylic acid ethyl ester]

AUC ([5]; 0 min): 0 µg·min/mL
Drug 4 Concentration ([5]; 0 min): 0 μgA/mL
AUC ([5]; 4 min): 630 µg·min/mL
Drug 4 Concentration ([5]; 4 min): 320 μgA/mL
AUC ([5]; 10 min): 2,600 min * μg/mL
Drug 4 Concentration ([5]; 10 min): 340 μgA/mL
AUC ([5]; 20 min): 7,300 min * μg/mL
Drug 4 Concentration ([5]; 20 min): 610 μgA/mL
AUC ([5]; 40 min): 8,100 min * μg/mL
Drug 4 Concentration ([5]; 40 min): 460 μgA/mL
AUC ([5]; 90 min): 41,700 min * μg/mL
Drug 4 Concentration ([5]; 90 min): 480 μgA/mL
AUC ([5]; 1200 min): 527,700 min * μg/mL
Drug 4 Concentration ([5]; 1200 min): 400 μgA/mL
AUC90 ([5]; Drug 4): 41,700 min * μg/mL
SMILES: COc1ccc2c(c1)c(CC(=O)O)c(C)n2C(=O)c1ccc(Cl)cc1 [Control 4, Indomethacin]

crystallization rate ([6]; 4 days at 40° C. and 75% relative humidity): 20 %/day
crystallinity of the drug ([6]; after 4 days of storage at 40° C. and 75% relative humidity, PXRD): more than 80%
SMILES: COc1ccc2c(c1)c(CC(=O)O)c(C)n2C(=O)c1ccc(Cl)cc1 [amorphous control, Indomethacin]
